Source: patent publication US20180271888A1, “COMPOSITIONS AND METHODS FOR PARKINSON'S DISEASE THERAPY” (priority 2017, published 2018)

How the values were obtained:
Type in all cases: in vivo, mouse
[1] = system: WT and P2X4R KO mice; assay: Prepulse inhibition (PPI) of acoustic startle reflex
Experimental: Acoustic startle reflex and PPI were tested as previously described (Wyatt, L. R. et al. (2013) Neuropsychopharmacology 38:1993-2002). The apparatus used for detection of startle reflex (San Diego Instruments, San Diego, Calif., USA) consisted of a standard cage placed in sound attenuated chambers with fan ventilation. Each cage consisted of a Plexiglass cylinder of 3 cm diameter, mounted on piezoelectric accelerometric platform connected to an analog-digital converter. Background noise and acoustic bursts were conveyed by two separate speakers, each one oriented appropriately so as to produce a variation in sound within 1 dB across the startle cage. Both speakers and startle cages were connected to the main PC, which detected and analyzed all chamber variables with Startle software (San Diego Instruments). Before each testing session, acoustic stimuli were calibrated via a digital sound level meter.
During the baseline session, mice were exposed to background noise of 70 dB and, after an acclimatization period of 5 min, were presented with 12 40 ms trials of 115 dB interposed with three trials of a 82 dB pre-stimulus preceding the 115 dB by 100 ms. […] Delta PPI (APPI) was calculated as mean startle amplitude for pulse alone trials—(mean startle amplitude for prepulse trial). […]
For the western blotting analysis, the average of densitometry values of WT striatal samples was used to arbitrarily normalize WT samples to 1 and the P2X4R KO striatal samples were normalized by dividing each densitometry value by the average of WT samples. […] Normalized density of proteins was expressed as mean±SEM. Phosphorylation was calculated as ratio of normalized values of phosphorylated form to total form of protein. DA levels were expressed as ng/mg of protein content. […] Pharmacological studies for motor behavior and sensorimotor gating were analyzed by two-way repeated measures ANOVA with time/PPI intensity and genotype/treatment as within and between-subjects variability, respectively, followed by Bonferroni post hoc test for multiple comparisons. […]

[2] = system: 6-OHDA lesioned WT and P2X4R KO mice; assay: L-DOPA-induced rotational behavior in the 6-OHDA model of DA depletion (Example 1)
Experimental: Mice were treated with desipramine hydrochloride (25 mg/kg, i.p.) (Sigma-Aldrich) 30 min prior to surgery to prevent concurrent damage of noradrenergic pathways by 6-OHDA. Mice were anesthetized with avertin ([…], i.p.) and placed in the stereotaxic apparatus. Two μL of freshly prepared 6-OHDA bromide salt (4 mg/mL in 0.2% ascorbic acid and 0.9% saline; Sigma-Aldrich) was unilaterally infused into left median forebrain bundle (from Bregma point: 1.2 mm posterior, 1.1 mm lateral, 5 mm ventral) (Franklin, B. J. and Paxinos, G. (2007) The Mouse Brain in Stereotaxic Coordinates. Elsevier Academic Press, Amsterdam) at a rate of 0.5 μL/min using a 10 μL Hamilton syringe and a microlitre syringe pump. The injection cannula was left in place for 3-5 min to prevent reflux and ensure complete absorption. Post-operative procedures involved daily subcutaneous (s.c.) injections with sucrose (5% w/v in saline) and warming on a heating pad for 2 weeks.
Mice were subjected to behavioral testing 3 weeks after 6-OHDA lesioning surgery. Mice were placed in a plastic cylinder (318 mm in diameter) with a video camera mounted above it. Baseline rotational behavior was established by saline injections which causes the mouse to rotate toward the lesioned side with lesser DA activity (ipsilateral rotations). L-DOPA (5 mg/kg, s.c.) was administered 5 min prior to behavioral testing and the number of contralateral and ipsilateral rotations were counted in every 10-minute interval for a total period of 90 min.
For the western blotting analysis, the average of densitometry values of WT striatal samples was used to arbitrarily normalize WT samples to 1 and the P2X4R KO striatal samples were normalized by dividing each densitometry value by the average of WT samples. Normalization of the two genotypes was done within the same membrane and presented as fold change of P2X4R KO versus WT in that membrane. For D1, D2, DARPP-32, ERK 1/2, and CREB immunoblotting; WT and P2X4R KO mice were generated in separate cohorts. The normalization of P2X4R KO to WT samples was done within the same cohort followed by combining data from two cohorts for analyses. […] Normalized density of proteins was expressed as mean±SEM. Phosphorylation was calculated as ratio of normalized values of phosphorylated form to total form of protein. DA levels were expressed as ng/mg of protein content. Unpaired Student t-test was used for analyzing the differences in protein densities and DA levels between WT and P2X4R KO groups. […] Pharmacological studies for motor behavior and sensorimotor gating were analyzed by two-way repeated measures ANOVA with time/PPI intensity and genotype/treatment as within and between-subjects variability, respectively, followed by Bonferroni post hoc test for multiple comparisons. Significance was set at p<0.05. All data were analyzed using GraphPad Prism software (San Diego, Calif., USA).

[3] = system: TH; assay: TH expression in striatum after 6-OHDA lesioning; conditions: 6-OHDA 4 mg/mL, 2 μL unilateral, lesioned vs unlesioned side
Experimental: Protein samples of 50 lg ran on 10% sodium dodecyl sulfate-polyacrylamide gel electrophoresis gels and transferred onto polyvinylidine diflouride membranes using semi-dry transfer method (Trans turbo blot; BioRad Laboratories, Hercules, Calif., USA). Striatal samples from WT and P2X4R KO mice were made to run on the same gel and transferred onto the same membrane. Nonspecific binding was blocked by incubation in 5% non-fat dry milk, followed by incubation with primary antibodies overnight at 4° C. The antibodies used were rabbit anti-TH (1:5000), mouse anti-DAT (1:1000), rabbit anti-D2 receptor (1:1000), rabbit anti-DARPP-32 (1:1000) (Millipore), rabbit anti-D1 receptor (1:500; SantaCruz biotechnology, Santacruz, Calif., USA), mouse anti-total ERK 1/2 (1:1000), rabbit anti-total CREB (1:1000) (Cell Signaling Technology, Beverly, Mass., USA), mouse anti-β-actin (1:20 000; Sigma-Aldrich), and mouse anti-α-tubulin (1:10 000; Millipore). The antibodies for phospho proteins included rabbit antiphospho-Thr34-DARPP-32 (1:400; Millipore), rabbit anti-phospho-Ser133-CREB (1:500), rabbit anti-diphospho-Thr202/Tyr204-ERK 1/2 (1:500) (Cell Signaling Technology). Secondary antibodies included goat anti-mouse and goat anti-rabbit antibodies (1:10 000; BioRad Laboratories). […] Protein quantification was carried out by optical densitometry using ImageJ software (NIH, Bethesda, Md., USA). […]

CCN1CCC[C@H]1CNC(=O)c1c(O)c(Cl)cc(Cl)c1OC [raclopride]
PPI of acoustic startle reflex ([1]; P2X4R KO mice vs saline, SCH-23390 1 mg/kg i.p. or raclopride 3 mg/kg i.p., 10 min prior, significant at PPI 6 and PPI 12): significantly enhanced
startle amplitude ([1]; P2X4R KO mice, SCH-23390 1 mg/kg or raclopride 3 mg/kg): without any changes
PPI function ([1]; WT mice, SCH-23390 1 mg/kg or raclopride 3 mg/kg i.p.): no significant changes

N[C@@H](Cc1ccc(O)c(O)c1)C(=O)O [L-DOPA, L-3,4-didhydrophenylalanine]
rotational behavior with L-DOPA treatment ([2]; L-DOPA 5 mg/kg s.c., 6-OHDA lesioned WT and P2X4R KO mice): exhibited contralateral rotations
L-DOPA-induced contralateral turns, P2X4R KO compared to WT mice ([2]; L-DOPA 5 mg/kg, significant during the 45-55 min interval): significantly fewer

NCCc1cc(O)c(O)cc1O [6-OHDA, 6-hydroxydopamine]
reduced TH expression in the striatum ([3]; P2X4R KO mice): 96.3%
reduced TH expression in the striatum ([3]; WT mice): 95.7%
